Measurements as given in patent US5183883A, “Conjugate of adriamycin and cyclodextrin” (Mercian Corporation, priority 1990, dated 1993).
Values after ≈ are worked out from the molar mass of the structure shown. Where a name gives a salt, the structure may show the parent alone. Read-outs that look alike come from different tables or passages of the source.

Legend:
[1] = Sustained release test (adriamycin liberated in phosphoric acid buffer physiological saline); type: physicochemical; conditions: 1 mg in 0.0067 M phosphoric acid buffer physiological saline, initial pH=7.36-7.37, 37° C., HPLC
Experimental: One milligram of each of the adriamycin derivatives obtained in Examples 1, 2, 3, 4, 5 and 6 to be described later was dissolved in 0.0067 M phosphoric acid buffer physiological saline solution made by Bioproducts, Inc. (initial pH=7.36-7.37), and the solution was kept at 37° C. The amount of adriamycin liberated in the solution was analyzed by HPLC [column=YMC Pack A-312 S-5 120A ODS; mobile phase=0.05M ammonium formate buffer (pH=4.0):- acetonitrile=7:4, flow rate=1 ml/min; measuring wavelength=254 nm; retention time of adriamycin under the present conditions=3.8 minutes].
Consequently, a 50 % released time of adriamycin from the adriamycin derivatives is as follows, and sustained release was confirmed.

[2] = test system: mouse leukemia cells; assay: Cytotoxicity test; conditions: for Cytotoxicity, IC50: 48 hours, 37° C., RPMI1640 with 10% horse serum, trypan blue
Experimental: 5×10^4 cells/ml of mouse leukemia cells were inoculated in a RPMI1640 culture medium containing 10% horse serum, and the compound of the present invention was added to this such that the final concentration became 0.001 to 10.0 μg/ml. Cultivation was conducted in a carbon dioxide gas incubator (air containing 5% carbon dioxide gas) at 37° C. for 48 hours.

[3] = test system: L1210 leukemia; assay: Test of anti-cancer activity to L1210 leukemia mice; type: in vivo, CDF1 mice; conditions: i.p., 10 days; for Survived mice/test mice: observed 60 days
Experimental: 1×10^5 L1210 leukemia cells were inoculated into CDF1 mice intraperitoneally, and 24 hours later, the aqueous solution of the compound of this invention was intraperitoneally administered successively over 10 days. Test groups, each consisting of 6 mice, were fed and observed for 60 days, and percent prolongation of life (T/C; %) was found.

[4] = intravenous injection in mice; Collection of Medicaments in Japan, 1989; cited from earlier work
[5] = Toxicity test LD50; type: in vivo; conditions: mice, intravenously administered once
Excerpt: LD50 given when the adriamycin derivatives of this invention were intravenously administered once in mice is as follows.

[6] = 9.54 mg/kg/day (2.5 as adriamycin)
[7] = 13.36 mg/kg/day (3.5 as adriamycin)
[8] = 19.08 mg/kg/day (5.0 as adriamycin)
[9] = 26.72 mg/kg/day (7.0 as adriamycin)
[10] = 38.17 mg/kg/day (10.0 as adriamycin)
[11] = 9.77 mg/kg/day (2.5 as adriamycin)
[12] = 19.53 mg/kg/day (5.0 as adriamycin)
[13] = 39.06 mg/kg/day (10.0 as adriamycin)
[14] = 78.13 mg/kg/day (20.0 as adriamycin)
[15] = 156.25 mg/kg/day (40.0 as adriamycin)

## COc1cccc2c1C(=O)c1c(O)c3c(c(O)c1C2=O)C[C@@](O)(C(=O)COC(=O)C1CCCCC1C(=O)OC[C@H]1O[C@@H]2O[C@H]4[C@H](O)[C@@H](O)[C@@H](O[C@H]5[C@H](O)[C@@H](O)[C@@H](O[C@H]6[C@H](O)[C@@H](O)[C@@H](O[C@H]7[C@H](O)[C@@H](O)[C@@H](O[C@H]8[C@H](O)[C@@H](O)[C@@H](O[C@H]9[C@H](O)[C@@H](O)[C@@H](O[C@H]%10[C@H](O)[C@@H](O)[C@@H](O[C@H]1[C@H](O)[C@H]2O)O[C@@H]%10CO)O[C@@H]9CO)O[C@@H]8CO)O[C@@H]7CO)O[C@@H]6CO)O[C@@H]5CO)O[C@@H]4CO)C[C@@H]3O[C@H]1C[C@H](N)[C@H](O)[C@H](C)O1 (some centres unmarked) [Example 6-ACC, adriamycin (14-position)-ciscyclohexanedicarboxylic acid-(6-position) γ-cyclodextrin conjugate]
[1]
  50 % released time of adriamycin from the adriamycin derivatives: > 70 h
[2]
  Cytotoxicity, IC50: 2.07 µg/mL

## COc1cccc2c1C(=O)c1c(O)c3c(c(O)c1C2=O)C[C@@](O)(C(=O)CO)C[C@@H]3O[C@H]1C[C@H](N)[C@H](O)[C@H](C)O1 [Adriamycin hydrochloride, reference compound]
[3]; 0.31 mg/kg/day
  Anti-cancer activity, T/C (%): 170%
  Survived mice/test mice: 0/6
[3]; 0.63 mg/kg/day
  Anti-cancer activity, T/C (%): 218%
  Survived mice/test mice: 0/6
[3]; 1.25 mg/kg/day
  Anti-cancer activity, T/C (%): 255%
  Survived mice/test mice: 0/6
[3]; 2.50 mg/kg/day
  Anti-cancer activity, T/C (%): 177%
  Survived mice/test mice: 0/6
[3]; 5.00 mg/kg/day
  Anti-cancer activity, T/C (%): 132%
  Survived mice/test mice: 0/6

## COc1cccc2c1C(=O)c1c(O)c3c(c(O)c1C2=O)C[C@@](O)(C(=O)CO)C[C@@H]3O[C@H]1C[C@H](N)[C@H](O)[C@H](C)O1 [Adriamycin, adriamycin]
[2]; Mus musculus, 48 h, read-out: Cytotoxicity, IC50
  IC50: 0.058 µg/mL (≈ 0.107 µM)
[4]
  LD50: 9.8 mg/kg

## COc1cccc2c1C(=O)c1c(O)c3c(c(O)c1C2=O)C[C@@](O)(C(=O)COC(=O)c1ccccc1C(=O)OC[C@H]1O[C@@H]2O[C@H]4[C@H](O)[C@@H](O)[C@@H](O[C@H]5[C@H](O)[C@@H](O)[C@@H](O[C@H]6[C@H](O)[C@@H](O)[C@@H](O[C@H]7[C@H](O)[C@@H](O)[C@@H](O[C@H]8[C@H](O)[C@@H](O)[C@@H](O[C@H]9[C@H](O)[C@@H](O)[C@@H](O[C@H]%10[C@H](O)[C@@H](O)[C@@H](O[C@H]1[C@H](O)[C@H]2O)O[C@@H]%10CO)O[C@@H]9CO)O[C@@H]8CO)O[C@@H]7CO)O[C@@H]6CO)O[C@@H]5CO)O[C@@H]4CO)C[C@@H]3O[C@H]1C[C@H](N)[C@H](O)[C@H](C)O1 [Example 6-APC, adriamycin (14-position)-phthalic acid-(6-position) γ-cyclodextrin conjugate]
[1]
  50 % released time of adriamycin from the adriamycin derivatives: about 45 hours
[2]
  Cytotoxicity, IC50: 0.49 µg/mL

## COc1cccc2c1C(=O)c1c(O)c3c(c(O)c1C2=O)C[C@@](O)(C(=O)COC(=O)CCC(=O)OC[C@H]1O[C@@H]2O[C@H]4[C@H](O)[C@@H](O)[C@@H](O[C@H]5[C@H](O)[C@@H](O)[C@@H](O[C@H]6[C@H](O)[C@@H](O)[C@@H](O[C@H]7[C@H](O)[C@@H](O)[C@@H](O[C@H]8[C@H](O)[C@@H](O)[C@@H](O[C@H]9[C@H](O)[C@@H](O)[C@@H](O[C@H]%10[C@H](O)[C@@H](O)[C@@H](O[C@H]1[C@H](O)[C@H]2O)O[C@@H]%10CO)O[C@@H]9CO)O[C@@H]8CO)O[C@@H]7CO)O[C@@H]6CO)O[C@@H]5CO)O[C@@H]4CO)C[C@@H]3O[C@H]1C[C@H](N)[C@H](O)[C@H](C)O1 [Example 6-ASC, adriamycin (14-position)-succinic acid (6-position) γ-cyclodextrin conjugate]
[1]
  50 % released time of adriamycin from the adriamycin derivatives: about 3 hours
[2]
  Cytotoxicity, IC50: 0.21 µg/mL

## adriamycin-succinic acid-γ-cyclodextrin conjugate [ASC]
[3]; [6]
  Anti-cancer activity, T/C (%): 207%
  Survived mice/test mice: 0/6
[3]; [7]
  Anti-cancer activity, T/C (%): 545%
  Survived mice/test mice: 3/6
[3]; [8]
  Anti-cancer activity, T/C (%): 552%
  Survived mice/test mice: 3/6
[3]; [9]
  Anti-cancer activity, T/C (%): 193%
  Survived mice/test mice: 0/6
[3]; [10]
  Anti-cancer activity, T/C (%): 159%
  Survived mice/test mice: 0/6

## COc1cccc2c1C(=O)c1c(O)c3c(c(O)c1C2=O)C[C@@](O)(C(=O)COC(=O)c1cc2ccccc2cc1C(=O)OC[C@H]1O[C@@H]2O[C@H]4[C@H](O)[C@@H](O)[C@@H](O[C@H]5[C@H](O)[C@@H](O)[C@@H](O[C@H]6[C@H](O)[C@@H](O)[C@@H](O[C@H]7[C@H](O)[C@@H](O)[C@@H](O[C@H]8[C@H](O)[C@@H](O)[C@@H](O[C@H]9[C@H](O)[C@@H](O)[C@@H](O[C@H]%10[C@H](O)[C@@H](O)[C@@H](O[C@H]1[C@H](O)[C@H]2O)O[C@@H]%10CO)O[C@@H]9CO)O[C@@H]8CO)O[C@@H]7CO)O[C@@H]6CO)O[C@@H]5CO)O[C@@H]4CO)C[C@@H]3O[C@H]1C[C@H](N)[C@H](O)[C@H](C)O1 [Example 6-ANC, adriamycin (14-position)-naphthalenedicarboxylic acid-(6-position) γ-cyclodextrin conjugate]
[1]
  50 % released time of adriamycin from the adriamycin derivatives: about 65 hours
[2]
  Cytotoxicity, IC50: 0.79 µg/mL

## adriamycin-phthalic acid-γ-cyclodextrin conjugate [APC]
[1]
  50 % released time of adriamycin from the adriamycin derivatives: about 20 hours
[3]; [11]
  Anti-cancer activity, T/C (%): 164%
  Survived mice/test mice: 0/6
[3]; [12]
  Anti-cancer activity, T/C (%): 234%
  Survived mice/test mice: 0/6
[3]; [13]
  Anti-cancer activity, T/C (%): 468%
  Survived mice/test mice: 2/6
[3]; [14]
  Anti-cancer activity, T/C (%): 475%
  Survived mice/test mice: 0/6
[3]; [15]
  Anti-cancer activity, T/C (%): 143%
  Survived mice/test mice: 0/6
[2]
  Cytotoxicity, IC50: 0.32 µg/mL
[5]; as derivative
  LD50: 555 mg/kg
[5]; calculated as adriamycin
  LD50 as adriamycin: 147 mg/kg as adriamycin
